Paper PMC5412445, “ZeGlobalTox: An Innovative Approach to Address Organ Drug Toxicity Using Zebrafish” (International Journal of Molecular Sciences, 2017)
Like-named read-outs stand apart in the source and are kept apart here.

Assays:
[1] = test system: wild type zebrafish embryos; test: in vivo; assay type: in vivo; conditions: embryos incubated 3 to 96 hpf; 5 logarithmic concentrations 0.1 µM to 1 mM; 1% DMSO
Text: (§1) Several issues were considered when planning the experimental protocol. The main concern was that drug-induced mortality and/or developmental toxicity (teratogenicity) could mask possible organ-toxicities appearing later in development. […] This preliminary assay allowed for the identification of non-mortal/non-teratogenic concentrations—no observed effect concentration (NOEC)—to use in the following assays. The hypothesis is that NOEC could affect organ physiology (organ toxicity), while uncoupled from putative developmental toxicity side-effects affecting organ development or function. Another consideration was to start drug incubations at 96 hours post fertilization (hpf), when the analysed organs are close to or already developed (Figure 1B). The overall aim is to understand the drug impact on organ physiology and function rather than early embryogenesis. The third consideration was to organize the sequential organ evaluation during the experimental and drug incubation time.
(§2) 1% DMSO, which is the constant solvent concentration in all conditions, was used as the negative control.
(§3) Thus, 20 wild type (wt) zebrafish embryos per condition were incubated with tested compounds from 3 to 96 hpf. The test was performed in 5 logarithmic concentrations per drug (from 0.1 µM to 1 mM). Each larva was analysed for mortality, body deformity, edema, tail detachment, pigmentation, heart activity, heart edema, and motor activity. […] DMSO 1% was used as the negative control in all experiments.

humans = conditions: cited from earlier work
zebrafish larvae heart = test: ZeGlobalTox cardiotoxicity evaluation (heart video, ZeCardio software); assay type: in vivo, zebrafish (Danio rerio); conditions: 100 hpf, 4 h after drug incubation at NOEC (haloperidol 10 µM)
Method: Four cardiac parameters were evaluated to assess whether a compound was cardiotoxic: heart rate (beats per minute, BPM), QTc prolongation, ejection fraction (EJF), and cardiac arrest. […] 1% DMSO was used as the negative control.
Cardiotoxicity evaluation was performed from 96 hpf, when the zebrafish heartbeat is already stabilised, so the analysis might not be altered by unstable beating. Zebrafish hearts were video-recorded at 4 h after drug incubation (100 hpf) and analysed using the ZeCardio® β software (Figure 3A).
After 4 h of drug incubation (100 hpf), zebrafish larvae were anesthetized by immersion in […] tricaine methanesulfonate (A4050, Sigma-Aldrich, Saint Louis, MO, USA)/E3 solution. […] The 1% DMSO treated embryos were used as negative cardiotoxic controls. Embryos were positioned in an agarose based mold to allow their appropriate orientation under the fluorescence stereo microscope (Olympus MVX10). Individual fluorescent hearts were recorded during 60 s each (Figure 6A). Videos were acquired with a high-speed recording camera (Hamamatsu C11440 ORCA-flash 2.8) and analysed with the ZeCardio® β software to extract different cardiac parameters—heart rate, cardiac arrest, QTc prolongation, and Ejection Fraction (EJF) (Figure 6B).
ZeCardio® β software, developed by ZeClinics and currently in β status, provides a graphical user interface (GUI) that facilitates the semi-automatic analysis of living heart videos. Interactive analysis of the different parameters functions as follows: The user draws a line along the heart axis, from ventricle to atrium, to initiate the calculation. […] All lines can be subjected to modification of their angles and lengths.
Heart beat frequency for each chamber is detected and frequencies are presented in the GUI as a mean. A plot distribution is used for assessing beat stability over time (Figure 6F). In the same fashion, chamber specific cardiac arrest is measured as the longest beating pause (Figure 6H). No beating chambers and/or incorrect bpm can be manually flagged when detected.
For calculation of the QTc interval (linearly corrected QT interval), the Framingham formula (QTc = QT + 0.154 (1 − RR)) was adjusted for zebrafish as QTc = QT + 0.154 (2.66 − RR). RR = 6.6 ms/measured bpm is applied (Figure 6G). Finally, the Ejection Fraction, calculated as the maximal dilatation (the diastolic diameter, DD) versus the maximal contraction (systolic diameter, SD) is measured in % as EF% = (DD − SD)/DD*100 (Figure 6G). Computed values for the described parameters were exported in .csv format (Figure 6H).

in vivo = assay type: in vivo; conditions: zebrafish, in vivo; mortality; embryos incubated 3 to 96 hpf; 5 logarithmic concentrations 0.1 µM to 1 mM; 1% DMSO
Text: as §1, §2, §3

zebrafish larvae liver = test: ZeGlobalTox hepatotoxicity: Oil Red O staining (steatosis and yolk lipid accumulation); conditions: 132 hpf; for Percentage of larvae presenting steatosis: 36 h drug incubation at NOEC (EtOH 2%, MPTP 100 µM), DMSO 24.44%
Method: In order to assess drugs producing steatosis and yolk lipid accumulation, and subsequent to the RFP filtered images being acquired, zebrafish larvae were stained with Oil Red O. Larvae and were sorted into steatosis positive or negative, yolk lipid accumulation, or both (see materials and methods).
For the ZeGlobalTox assay, fertilized Tg(cmlc2:GFP; fabp10:RFP; ela31:EGFP) zebrafish embryos were collected in E3 medium (5 mM NaCl, 0.17 mM KCl, 0.33 mM CaCl2, 0.33 mM, MgSO4) in Petri dishes. At 3, 24, and 48 hpf, dishes were observed and all not fertilized, abnormal, or coagulated eggs were discarded. At 96 hpf, 20 larvae per condition were incubated with the NOECs from the different drugs and allowed to develop until 132 hpf at 28.5 °C.
After 36 h of drug incubation (132 hpf), embryos are fixed in 4% paraformaldehyde (158127-500G, Sigma-Aldrich, Saint Louis, MO, USA) for 2–4 h at room temperature (RT) and then are 3× washed with PBS.
In order to detect the presence of steatosis and yolk lipid retention, zebrafish larvae were stained with Oil Red O (O0625-25G, Sigma-Aldrich, Saint Louis, MO, USA) as described in [77]. Briefly, the skin pigment from fixed larvae is removed by incubating with bleaching solution (for 10 mL: 6 mL H2O, 0.25 mL 20× SSC, 0.5 mL formamide, 3.3 mL H2O2) during 20 min at RT. Then, the larvae are 5× washed with PBS. Bleached embryos are first submerged in 85% Propylene glycol (PG) (134368-1L, Sigma-Aldrich, Saint Louis, MO, USA) for 10 min and then in 100% PG for another 10 min before staining them with Oil Red O 0.5% in 100% PG (overnight, at RT and with gentle rocking). Oil Red O stained embryos are washed in 100% PG for 30 min, 50 min in 85% PG, and 40 min in 85% PG with an equal volume of PBS. Finally, embryos are washed 1× with PBS before adding 80% glycerol (G7757-500ML, Sigma-Aldrich, Saint Louis, MO, USA). Bright field images are taken to detect both steatosis and yolk lipid accumulation. […] Yolk lipid retention is considered positive when a red strong signal is observed in the yolk area (Figure 5F).
DMSO 1% treated larvae were used as the negative control group.

zebrafish larvae = test: ZeGlobalTox neurotoxicity evaluation (locomotion, light/dark trial); assay type: in vivo, zebrafish (Danio rerio); conditions: 120 hpf, drug from 96 hpf at NOEC (MPTP 100 µM, paracetamol 2600 µM)
Method: By 5 dpf, zebrafish larvae perform spontaneous swimming and their visual system is fully developed. Therefore, behavioural experiments were performed from this time point (Figure 4A). Deviations in total distance moved, in response to photo-visual stimulation, were analysed as a direct measurement of neurotoxicity. Thus, drugs increasing or decreasing total distance moved when compared to the DMSO-only group were considered neurotoxic. As the positive neurotoxic control we used MPTP, which has been identified as a neurotoxic drug in humans and zebrafish.
Immediately after heart video acquisition, larvae are washed with E3 medium to remove tricaine methanesulfonate from the solution. Fresh drug solution is added and the larvae are transferred individually in a volume of 150 µL to 96 well plates.
Neurotoxicity is analysed at 120 hpf by locomotion assessment using the EthoVision XT 11.5 software and the DanioVision device from Noldus Information Technologies, Wageningen, The Netherlands. This closed system consists of a camera placed above a chamber with circulating water and a temperature sensor set at 28 °C. The 96-well plates are placed in the chamber, which can then be illuminated with white light using the software. Larvae are then left for 20 min under these conditions and with the lights on to help their acclimation. Finally, larvae locomotion is measured during 50′ under the following light/dark conditions: 10′ darkness-10′ Light-10′ darkness-10′ Light-10′ darkness. Total distance moved (in mm) is acquired under this light/dark trial. Due to circadian rhythms, all locomotion assays were performed from 13:00 pm onwards to ensure steady activity of the zebrafish.
Neurotoxicity is assessed by comparing locomotion differences among the tested compounds (solved in DMSO) and the negative control group (DMSO 1%-only).

[2] = known toxicity in humans, ref TOXNET (HSDB), Side effects (EMBL), drugs.com, [22],[30],[31],[34],[35]
[3] = known toxicity in humans, ref TOXNET (HSDB), Side effects (EMBL), drugs.com, ema.europa, [19],[20],[21]
[4] = known toxicity in humans, ref TOXNET (HSDB), Side effects (EMBL), drugs.com, ema.europa, [24],[26],[27],[32],[33]

Row | Structure (SMILES) | 96 hpf NOEC [1] [µM] | Neurotoxicity (toxicity in humans) (humans; [2]) | Cardiotoxicity (toxicity in humans) (humans; [3]) | Hepatotoxicity (toxicity in humans) (humans; [4]) | LC50 (in vivo) [µM] | 96 hpf LOEC [1] [µM] | further results
1 | [Cl-].[Na+] [NaCl, sodium chloride] | 1000.00 | Safe | Safe | Safe | – | – | –
2 | O=C(CCCN1CCC(O)(c2ccc(Cl)cc2)CC1)c1ccc(F)cc1 [Haloperidol] | – | Toxic ^1,2,3 | Toxic ^1,2,3 [19, 20, 21] | Safe | – | – | Heart rate (beats per minute) compared to DMSO-only (zebrafish larvae heart): decreased the heart rate; QTc interval compared to DMSO-only (zebrafish larvae heart): QTc interval prolongation
3 | CCO [Ethanol] | – | Toxic ^1 | Toxic ^1 | Toxic [26, 27] | – | – | –
4 | CCOC(=O)Nc1ccc(NCc2ccc(F)cc2)nc1N [Flupirtine, flupirtine] | 10.00 | Safe | Safe | Toxic ^4 | 136 | 100.00 | –
5 | CN(CCOc1ccc(NS(C)(=O)=O)cc1)CCc1ccc(NS(C)(=O)=O)cc1 [Dofetilide, dofetilide] | – | Safe | Toxic ^1,2,3 | Safe | – | 100.00 | Heart rate (beats per minute) compared to DMSO-only (zebrafish larvae heart): decreased the heart rate; Longest cardiac arrest compared to DMSO-only (zebrafish larvae heart): Longer cardiac arrest
6 | N[C@@H](CS)C(=O)O [L-Cysteine, L-cysteine] | 1000.00 | – | – | – | – | – | –
7 | COc1cc(N)c(Cl)cc1C(=O)NC1CCN(CCCOc2ccc(F)cc2)CC1OC (centres unmarked) [Cisapride, cisapride] | – | Safe | Toxic ^1,3 | Safe | > 1000 | – | Heart rate (beats per minute) compared to DMSO-only (zebrafish larvae heart): decreased the heart rate; Longest cardiac arrest compared to DMSO-only (zebrafish larvae heart): Longer cardiac arrest
8 | Cc1ccc(C(=O)Nc2ccc(S(=O)(=O)O)c3cc(S(=O)(=O)O)cc(S(=O)(=O)O)c23)cc1NC(=O)c1cccc(NC(=O)Nc2cccc(C(=O)Nc3cc(C(=O)Nc4ccc(S(=O)(=O)O)c5cc(S(=O)(=O)O)cc(S(=O)(=O)O)c45)ccc3C)c2)c1 [Suramin, suramin] | – | Toxic [34, 35] | Safe | Safe | 197 | 1000 | –
9 | CC(C)(C)NC(=O)[C@H]1CC[C@H]2[C@@H]3CC[C@H]4NC(=O)C=C[C@]4(C)[C@H]3CC[C@]12C [Finasteride, finasteride] | – | Safe | Safe | Safe | 31.6 | 100.00 | Percentage of larvae presenting steatosis (zebrafish larvae liver): 65%
10 | CCN(CC)c1ccc(C=O)cc1 [DEAB, 4-diethylaminobenzaldehyde] | 1.00 | – | – | – | 186 | 10.00 | –
11 | CC(=O)O[C@H]1C[C@@]2(C)[C@@H](C[C@@H](O)[C@H]3[C@@]4(C)CC[C@@H](O)[C@@H](C)[C@@H]4CC[C@@]32C)/C1=C(\CCC=C(C)C)C(=O)O [Fusidic Acid, fusidic acid] | – | Safe | Safe | Toxic [32, 33] | 124 | 100.00 | –
12 | C[C@]12CC[C@H](O)C[C@H]1CC[C@@H]1[C@@H]2C[C@@H](O)[C@]2(C)[C@@H](C3=CC(=O)OC3)CC[C@]12O [Digoxigenin, digoxigenin] | 100.00 | – | Toxic ^1 | – | – | 1000.00 | Percentage of larvae presenting steatosis (zebrafish larvae liver): 55%
13 | OC[C@H]1OC(O)[C@H](O)[C@@H](O)[C@@H]1O (stereo partly drawn) [D-(+)-glucose] | 1000.00 | – | – | – | – | – | Cardiotoxicity (toxicity in humans) (humans; in vivo): Safe; Hepatotoxicity (toxicity in humans) (humans; in vivo): Safe; Neurotoxicity (toxicity in humans) (humans; in vivo): Safe
14 | NC(=O)CC[C@H](N)C(=O)O [L-Glutamine, L-glutamine] | – | Safe | Safe | Safe | – | – | –
15 | NNC(=O)c1ccncc1 [Isoniazid, isoniazid] | 1000.00 | Toxic ^1,2,3 | Safe | Toxic ^1,2,3 | – | – | Percentage of larvae presenting steatosis (zebrafish larvae liver): 60%
16 | CC(=O)O[C@@]12CO[C@@H]1C[C@H](O)[C@@]1(C)C(=O)[C@H](O)C3=C(C)[C@@H](OC(=O)[C@H](O)[C@@H](NC(=O)OC(C)(C)C)c4ccccc4)C[C@@](O)([C@@H](OC(=O)c4ccccc4)[C@H]21)C3(C)C [Docetaxel, docetaxel] | – | Toxic ^1,2,3 | Toxic ^2,3 | Toxic ^1,2,3 | – | 100.00 | Motility (total distance moved) compared to DMSO (zebrafish larvae): increased motility; Heart rate (beats per minute) compared to DMSO-only (zebrafish larvae heart): decreased the heart rate; Longest cardiac arrest compared to DMSO-only (zebrafish larvae heart): Longer cardiac arrest
17 | O=C(O)c1cn(C2CC2)c2cc(N3CCNCC3)c(F)cc2c1=O [Ciprofloxacin, ciprofloxacin] | – | – | – | – | – | – | Heart rate (beats per minute) compared to DMSO-only (zebrafish larvae heart): increased heart rates; Longest cardiac arrest compared to DMSO-only (zebrafish larvae heart): no differences
18 | C[C@](N)(Cc1ccc(O)c(O)c1)C(=O)O [Methyldopa, methyldopa] | 1000.00 | Toxic ^1,3 | Safe | Toxic ^1,2,3 | – | – | Percentage of larvae presenting yolk lipid retention (zebrafish larvae liver; 36 h drug incubation at NOEC (paracetamol 2600 µM), DMSO 22.22%): 50%
